In assay [1] the target is T1, STAT6 protein (Homo sapiens, UniProt P42226).
T1 sequence (P42226 1-847): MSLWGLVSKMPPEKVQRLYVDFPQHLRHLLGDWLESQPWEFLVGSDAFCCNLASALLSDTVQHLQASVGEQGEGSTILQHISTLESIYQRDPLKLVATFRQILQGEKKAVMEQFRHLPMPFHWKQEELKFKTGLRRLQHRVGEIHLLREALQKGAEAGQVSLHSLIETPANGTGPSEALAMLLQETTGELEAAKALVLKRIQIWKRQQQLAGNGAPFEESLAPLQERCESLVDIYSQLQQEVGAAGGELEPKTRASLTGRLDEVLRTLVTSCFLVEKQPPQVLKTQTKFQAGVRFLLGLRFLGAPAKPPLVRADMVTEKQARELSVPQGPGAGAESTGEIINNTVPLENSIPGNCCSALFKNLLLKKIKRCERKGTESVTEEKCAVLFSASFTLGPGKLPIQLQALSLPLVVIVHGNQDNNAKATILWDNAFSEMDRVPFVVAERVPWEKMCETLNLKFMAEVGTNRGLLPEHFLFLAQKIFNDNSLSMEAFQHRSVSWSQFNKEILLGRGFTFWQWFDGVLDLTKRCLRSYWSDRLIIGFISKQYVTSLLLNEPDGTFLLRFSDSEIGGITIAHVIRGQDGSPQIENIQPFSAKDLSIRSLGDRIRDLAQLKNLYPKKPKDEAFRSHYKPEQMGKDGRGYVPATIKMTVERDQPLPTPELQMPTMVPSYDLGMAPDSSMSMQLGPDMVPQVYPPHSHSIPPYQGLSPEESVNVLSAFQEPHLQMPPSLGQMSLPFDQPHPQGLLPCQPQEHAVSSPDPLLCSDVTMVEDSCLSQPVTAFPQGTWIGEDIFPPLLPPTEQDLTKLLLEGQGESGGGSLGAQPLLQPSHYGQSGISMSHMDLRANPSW
Description: Fluorescence polarization (FP) binding assay, STAT6. The conditions noted are these: FP competition, 5 nM fluorescein-labeled tracer, 200 nM protein, PBS pH7.4; read-out: Binding STAT6. An outline of the steps: (§1)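 Tracer (fluorescein-labeled, 5 nM) was mixed with 200 nM STAT5 and/or STAT6 in PBS pH 7.4 plus 0.01% BGG, 0.01% Tween-20, 2 mM DTT. After 15 min shaking and 1 h at room temperature to equilibrium, polarization was measured and constants derived by nonlinear fitting.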

Assay [2] has as its target T2, STAT5A (Homo sapiens, UniProt P42229).
T2 sequence (P42229 1-794): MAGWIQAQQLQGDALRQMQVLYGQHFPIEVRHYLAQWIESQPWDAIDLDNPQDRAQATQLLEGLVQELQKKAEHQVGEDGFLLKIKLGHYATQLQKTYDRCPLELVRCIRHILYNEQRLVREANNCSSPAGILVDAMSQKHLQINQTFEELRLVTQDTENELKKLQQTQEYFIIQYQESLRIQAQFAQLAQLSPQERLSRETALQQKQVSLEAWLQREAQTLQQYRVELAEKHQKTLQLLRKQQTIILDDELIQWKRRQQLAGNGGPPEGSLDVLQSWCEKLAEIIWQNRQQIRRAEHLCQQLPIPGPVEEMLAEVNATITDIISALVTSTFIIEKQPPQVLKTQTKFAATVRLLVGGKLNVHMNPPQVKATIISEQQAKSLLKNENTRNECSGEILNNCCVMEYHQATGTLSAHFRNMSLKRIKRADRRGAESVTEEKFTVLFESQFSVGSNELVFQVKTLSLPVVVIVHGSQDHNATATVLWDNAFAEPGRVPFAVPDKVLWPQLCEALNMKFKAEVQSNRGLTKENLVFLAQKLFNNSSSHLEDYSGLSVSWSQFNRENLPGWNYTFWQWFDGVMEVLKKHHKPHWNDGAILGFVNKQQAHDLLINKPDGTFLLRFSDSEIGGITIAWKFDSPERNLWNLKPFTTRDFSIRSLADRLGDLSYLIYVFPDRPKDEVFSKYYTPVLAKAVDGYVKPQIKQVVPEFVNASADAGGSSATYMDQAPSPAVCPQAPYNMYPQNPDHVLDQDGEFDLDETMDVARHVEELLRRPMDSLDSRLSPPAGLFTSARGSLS
The experiment in a line: Fluorescence polarization (FP) binding assay, STAT5A. The conditions noted are these: FP competition, 5 nM fluorescein-labeled tracer, 200 nM protein, PBS pH7.4. The gist of the method: as §1

Consider `CC(C)(C)[C@H](NC(=O)c1cc2cc(C(F)(F)P(=O)(O)O)ccc2s1)C(=O)N1CCC[C@H]1C(=O)N1CCC2(CCCCC2)C1` [Compound 61, ((2-(((S)-1-((S)-2-(2-azaspiro[4.5]decane-2-carbonyl)pyrrolidin-1-yl)-3,3-dimethyl-1-oxobutan-2-yl)carbamoyl)benzo[b]thiophen-5-yl)difluoromethyl)phosphonic acid], for which the values for the Ki in assay [1] and in assay [2] were 1 to 10 µM and greater than 10 µM, respectively.

As to `CC(C)(C)[C@H](NC(=O)c1cc2cc(C(F)(F)P(=O)(O)O)ccc2s1)C(=O)N1CCC[C@H]1C(=O)N1CCC2(CCCCCC2)C1` [Compound 62, ((2-(((S)-1-((S)-2-(2-azaspiro[4.6]undecane-2-carbonyl)pyrrolidin-1-yl)-3,3-dimethyl-1-oxobutan-2-yl)carbamoyl)benzo[b]thiophen-5-yl)difluoromethyl)phosphonic acid], the values for the Ki in assay [1] and in assay [2] were 1 to 10 µM and greater than 10 µM, respectively.

As to `CC(C)(C)[C@H](NC(=O)c1cc2cc(C(F)(F)P(=O)(O)O)ccc2s1)C(=O)N1CCC[C@H]1C(=O)N1CCc2ccc(Cl)cc2C1` [Compound 68, ((2-(((S)-1-((S)-2-(7-chloro-1,2,3,4-tetrahydroisoquinoline-2-carbonyl)pyrrolidin-1-yl)-3,3-dimethyl-1-oxobutan-2-yl)carbamoyl)benzo[b]thiophen-5-yl)difluoromethyl)phosphonic acid], the Ki in assay [1] was 1 to 10 µM; in assay [2], greater than 10 µM.

For the compound `CC(C)(C)[C@H](NC(=O)c1cc2cc(C(F)(F)P(=O)(O)O)ccc2s1)C(=O)N1CCC[C@H]1C(=O)NC1(c2ccccc2)CC1` [Compound 71, ((2-(((S)-3,3-dimethyl-1-oxo-1-((S)-2-((1-phenylcyclopropyl)carbamoyl)pyrrolidin-1-yl)butan-2-yl)carbamoyl)benzo[b]thiophen-5-yl)difluoromethyl)phosphonic acid], the values for the Ki in assay [1] and in assay [2] were 1 to 10 µM and greater than 10 µM, respectively.

In the case of `CN(Cc1ccc(Cl)cc1)C(=O)[C@@H]1CCCN1C(=O)[C@@H](NC(=O)c1cc2cc(C(F)(F)P(=O)(O)O)ccc2s1)C(C)(C)C` [Compound 73, ((2-(((S)-1-((S)-2-((4-chlorobenzyl)(methyl)carbamoyl)pyrrolidin-1-yl)-3,3-dimethyl-1-oxobutan-2-yl)carbamoyl)benzo[b]thiophen-5-yl)difluoromethyl)phosphonic acid], the results for the Ki in assay [1] and in assay [2] were 1 to 10 µM and greater than 10 µM, respectively.

For the compound `CN(Cc1ccc(Br)cc1)C(=O)[C@@H]1CCCN1C(=O)[C@@H](NC(=O)c1cc2cc(C(F)(F)P(=O)(O)O)ccc2s1)C(C)(C)C` [Compound 74, ((2-(((S)-1-((S)-2-((4-bromobenzyl)(methyl)carbamoyl)pyrrolidin-1-yl)-3,3-dimethyl-1-oxobutan-2-yl)carbamoyl)benzo[b]thiophen-5-yl)difluoromethyl)phosphonic acid], the Ki in assay [1] is 1 to 10 µM; in assay [2], greater than 10 µM.

In the case of `CC(C)(C)[C@H](NC(=O)c1cc2cc(C(F)(F)P(=O)(O)O)ccc2s1)C(=O)N1CCC[C@H]1C(=O)N(Cc1ccccc1)C1CCCCC1` [Compound 75, ((2-(((S)-1-((S)-2-(benzyl(cyclohexyl)carbamoyl)pyrrolidin-1-yl)-3,3-dimethyl-1-oxobutan-2-yl)carbamoyl)benzo[b]thiophen-5-yl)difluoromethyl)phosphonic acid], the Ki was 1 to 10 µM in assay [1] and greater than 10 µM in assay [2].

In the case of `CC(C)(C)[C@H](NC(=O)c1cc2cc(C(F)(F)P(=O)(O)O)ccc2s1)C(=O)N1CCC[C@H]1C(=O)N(Cc1ccccc1)C1CCOCC1` [Compound 76, ((2-(((S)-1-((S)-2-(benzyl(tetrahydro-2H-pyran-4-yl)carbamoyl)pyrrolidin-1-yl)-3,3-dimethyl-1-oxobutan-2-yl)carbamoyl)benzo[b]thiophen-5-yl)difluoromethyl)phosphonic acid], the values for the Ki in assay [1] and in assay [2] were 1 to 10 µM and greater than 10 µM, respectively.

The values above are taken from patent US20230295200A1 (REGENTS OF THE UNIVERSITY OF MICHIGAN, priority 2022, published 2023).
